From publication PMC4306137, “The First Small-Molecule Inhibitors of Members of the Ribonuclease E Family” (Scientific Reports, 2015)
pIC50, pKd: −log10 of the molar value. Values joined by “and” are separate entries in the source; they are usually repeats but may differ in a detail not shown here. Equal values may be shown once. “Also recorded” adds a separate entry of the source.

Key:
E. coli NTH-RNase E [1] = target: T1, E. coli NTH-RNase E (Escherichia coli, UniProt P21513); assay: SPR binding to immobilized E. coli NTH-RNase E; conditions: for SPR binding curve behaviour (specific or non-specific binding): E. coli NTH-RNase E, plateau at higher concentrations = specific; for pKd: read-out: Steady State KD value; for Steady State KD value: apparent KD from SPR steady state fit, binding to E. coli RNase E, PBS with 5% DMSO
T1 sequence (P21513 1-529): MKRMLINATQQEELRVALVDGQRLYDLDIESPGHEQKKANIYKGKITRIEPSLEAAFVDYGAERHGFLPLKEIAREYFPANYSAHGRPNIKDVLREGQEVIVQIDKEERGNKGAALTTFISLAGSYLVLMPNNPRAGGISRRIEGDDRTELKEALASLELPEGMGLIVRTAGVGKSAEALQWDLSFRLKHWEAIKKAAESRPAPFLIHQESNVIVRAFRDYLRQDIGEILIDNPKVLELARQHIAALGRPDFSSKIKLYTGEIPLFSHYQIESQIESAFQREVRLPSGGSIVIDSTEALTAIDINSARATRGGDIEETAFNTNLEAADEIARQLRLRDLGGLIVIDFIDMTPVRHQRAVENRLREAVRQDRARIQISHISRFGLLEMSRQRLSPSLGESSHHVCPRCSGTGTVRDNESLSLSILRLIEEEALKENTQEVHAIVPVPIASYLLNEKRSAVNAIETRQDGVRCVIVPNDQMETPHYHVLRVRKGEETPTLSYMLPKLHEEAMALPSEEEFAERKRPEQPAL
Method: (§1) E. coli and M. tuberculosis RNase E were immobilized covalently using amine coupling to the surface of a Biacore CM5 sensor chip (GE Healthcare). Immobilization levels were approximately 1500 RUs. Assessment of compound binding were conducted by injecting varying compound concentrations in PBS containing 5% DMSO at flow rates of 30–90 μl/min for ~60 s over the reference and test flow cells. A Biacore T100 instrument was used and the data collected was reference and buffer subtracted prior to steady state analysis using data fitting functions provided in the Biacore T100 Evaluation Software.

E. coli NTH-RNase E [2] = target: T1, E. coli NTH-RNase E; assay: Discontinuous cleavage assay (pBR13-fl substrate), E. coli NTH-RNase E; assay type: biochemical; conditions: for pIC50: E. coli enzyme, pre-incubation 37°C 20 min, 20% DMSO, NI = no inhibition (up to 40 mM tested), read-out: Nominal IC50 RNase E; for Inhibition of catalysis by E. coli RNase E (in words): discontinuous cleavage assay, conditions used
E. coli RNase G = target: T2, E. coli RNase G (Escherichia coli, UniProt P0A9J0); assay: Discontinuous cleavage assay, E. coli RNase G; assay type: biochemical; conditions: for Inhibition of the activity of RNase G (in words): E. coli RNase G; for pIC50: E. coli enzyme, conditions as for RNase E, NI = no inhibition (up to 40 mM tested), read-out: Nominal IC50 RNase G
T2 construct: made in house
T2 sequence (P0A9J0 whole entry): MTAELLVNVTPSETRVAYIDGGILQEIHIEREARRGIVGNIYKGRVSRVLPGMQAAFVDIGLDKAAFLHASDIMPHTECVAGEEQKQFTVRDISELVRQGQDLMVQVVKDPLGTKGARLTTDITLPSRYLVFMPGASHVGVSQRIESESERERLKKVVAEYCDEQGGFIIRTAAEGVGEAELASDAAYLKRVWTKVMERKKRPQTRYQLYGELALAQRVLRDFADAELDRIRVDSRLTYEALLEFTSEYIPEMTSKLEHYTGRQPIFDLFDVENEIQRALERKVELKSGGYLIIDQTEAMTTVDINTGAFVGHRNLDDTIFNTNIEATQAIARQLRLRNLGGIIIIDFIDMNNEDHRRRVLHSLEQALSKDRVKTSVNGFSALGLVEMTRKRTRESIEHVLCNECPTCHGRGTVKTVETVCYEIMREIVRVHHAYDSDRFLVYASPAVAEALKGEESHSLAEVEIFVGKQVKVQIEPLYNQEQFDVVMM
Method: The compounds were obtained from Maybridge and re-suspended in 100% DMSO. Discontinuous cleavage assays were done using a 3′ fluorescein-labelled, 5′-monophosphorylated version of BR13, a well-characterised substrate of RNase E, with the sequence 5′-[…]↓AUUUG[44]. E. coli NTH-RNase E was pre-incubated with and without the compounds at 37°C for 20 min before the addition of substrate in a buffer containing 25 mM Bis-Tris Propane (pH 8.3), 100 mM NaCl, 15 mM MgCl2, 0.1% Triton X-100, 1 mM DTT and 20% DMSO. The enzyme monomer and substrate concentrations at the start of the reaction were 0.5 and 62 nM, respectively. The inhibition assays with RNase G and RNase A (Sigma) were carried out as above. Reaction products were analysed by electrophoresis using a denaturing 15% polyacrylamide, sequencing-type gel. Detection was via a FLA-5100 scanner (Fuji). Substrate and product were quantified using AIDA software (Raytest Isotopenmessgerate GmbH). Initial rates of reaction at increasing compound concentrations were obtained by establishing the slope representing percentage product generated over time during the initial, linear phase of the reaction. IC50 values were calculated by plotting the percentage inhibition of initial rate against compound concentration.

M. tuberculosis RNase E [3] = target: T3, M. tuberculosis RNase E (Mycobacterium tuberculosis, UniProt P71905); assay: Cleavage of pBR13-fl by M. tuberculosis RNase E; assay type: biochemical; conditions: 5 mM compound; room temperature; 5% DMSO
T3 sequence (P71905 whole entry): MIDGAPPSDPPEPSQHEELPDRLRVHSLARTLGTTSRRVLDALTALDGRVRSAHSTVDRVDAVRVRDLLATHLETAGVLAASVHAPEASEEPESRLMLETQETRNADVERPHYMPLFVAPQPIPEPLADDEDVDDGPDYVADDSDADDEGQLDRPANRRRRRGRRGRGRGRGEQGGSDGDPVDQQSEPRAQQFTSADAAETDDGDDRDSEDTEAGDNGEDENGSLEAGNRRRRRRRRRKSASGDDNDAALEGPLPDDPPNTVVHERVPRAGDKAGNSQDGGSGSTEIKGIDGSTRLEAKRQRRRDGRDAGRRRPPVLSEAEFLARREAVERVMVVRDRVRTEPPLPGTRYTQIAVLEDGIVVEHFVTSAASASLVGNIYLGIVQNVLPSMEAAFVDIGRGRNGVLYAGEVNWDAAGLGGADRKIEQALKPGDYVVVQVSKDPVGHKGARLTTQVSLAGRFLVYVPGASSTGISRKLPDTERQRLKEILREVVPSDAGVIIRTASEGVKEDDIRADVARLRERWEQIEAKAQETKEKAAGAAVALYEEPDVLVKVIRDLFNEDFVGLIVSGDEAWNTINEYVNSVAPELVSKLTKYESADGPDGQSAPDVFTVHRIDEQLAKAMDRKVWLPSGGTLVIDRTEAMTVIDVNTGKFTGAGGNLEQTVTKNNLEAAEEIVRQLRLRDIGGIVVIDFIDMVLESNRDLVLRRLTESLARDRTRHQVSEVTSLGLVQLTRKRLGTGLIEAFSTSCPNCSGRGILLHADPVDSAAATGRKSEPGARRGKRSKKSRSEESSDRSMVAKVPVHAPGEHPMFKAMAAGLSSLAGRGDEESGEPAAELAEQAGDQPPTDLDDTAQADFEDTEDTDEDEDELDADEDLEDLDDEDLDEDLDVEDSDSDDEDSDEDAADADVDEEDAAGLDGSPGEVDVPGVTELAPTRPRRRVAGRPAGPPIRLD
Method: For M. tuberculosis RNase E (a kind gift from Prof. B. Luisi, University of Cambridge), 1 μM 3′ fluorescently-labelled, 5′ monophosphorylated BR13 was incubated with 50 nM RNase E with and without the compounds in buffer containing 25 mM Tris-HCl (pH 7.5), 100 mM NaCl, 15 mM MgCl2, 1 mM DTT and 5% DMSO at room temperature. Reactions were analysed by electrophoresis using denaturing 20% polyacrylamide gels and visualised using a UV transilluminator.

M. tuberculosis RNase E [4] = target: T3, M. tuberculosis RNase E; assay: SPR binding to immobilized M. tuberculosis RNase E; conditions: data not shown
Method: as §1

[5] = compounds at their E. coli RNase E IC50 concentration: 1.9 mM P10, 1.8 mM P11, 3.8 mM M5, combinations at the same concentrations, read-out: Initial rate normalised to 1 for the reaction containing no compound

SMILES	SPR binding curve behaviour (specific or non-specific binding) (E. coli NTH-RNase E [1])	pKd (E. coli NTH-RNase E [1])	pIC50 (E. coli NTH-RNase E [2])	activity at 3800 µM (E. coli NTH-RNase E [2]; [5]) [%]	Inhibition of catalysis by E. coli RNase E (in words) (E. coli NTH-RNase E [2])	Inhibition of the activity of RNase G (in words) (E. coli RNase G)	pIC50 (E. coli RNase G)	Inhibition of M. tuberculosis RNase E (in words) (M. tuberculosis RNase E [3])	SPR binding curves, M. tuberculosis RNase E (in words) (M. tuberculosis RNase E [4])	Steady State KD value (E. coli NTH-RNase E [1])	activity at 1800 µM (E. coli NTH-RNase E [2]; [5]) [%]	activity at 1900 µM (E. coli NTH-RNase E [2]; [5]) [%]
CCOC(=O)NC(=O)c1cn(Nc2ncc(Cl)cc2C(F)(F)F)c(=O)[nH]c1=O [M5]	consistent with targeting of specific sites; also recorded: specific binding	~2.52	2.42 and ~2.42	42	clearly inhibited catalysis	able to inhibit the activity of RNase G	2.48 and ~2.48	inhibits activity but appears to be less efficient	consistent with specific targeting	–	–	–
O=C1c2ccccc2NC(c2cc(Cl)cc(Cl)c2O)N1Cc1cccnc1 (centres unmarked) [M2]	bind but at sites other than the intended target	–	< 1.40	–	did not inhibit RNase E	–	< 1.40	–	–	non-specific	–	–
Cc1c(C(=O)NNc2cc(C(F)(F)F)ccc2Cl)n(C)oc1=O [M8]	consistent with targeting of specific sites	~2.46	~2.49	–	clearly inhibited catalysis	–	–	–	–	–	–	–
Cc1ccc(C)n1-c1nn(S(=O)(=O)c2cccc3nonc23)c2cccc(F)c12 [P6]	consistent with targeting of specific sites	–	–	–	clearly inhibited catalysis	able to inhibit the activity of RNase G	–	–	–	–	–	–
Cc1nnsc1-c1onc(C)c1C(=O)O/N=C/c1cccc(Cl)c1 [M9]	consistent with targeting of specific sites	~2.70	~1.74	–	inhibited catalysis but much less efficiently	able to inhibit the activity of RNase G	~1.62	–	–	–	–	–
Cc1onc(-c2c(Cl)cccc2Cl)c1C(=O)N=S(C)(C)=O [M3]	consistent with targeting of specific sites	~3.22	< 1.40	–	–	–	< 1.40	–	–	–	–	–
Cc1ccc(S(=O)(=O)NC(=O)NCCSCc2c(C)cc(C)cc2C)cc1 [P11]	consistent with targeting of specific sites; also recorded: specific binding	–	–	–	clearly inhibited catalysis	able to inhibit the activity of RNase G	–	clear inhibition	consistent with specific targeting	–	62	–
Cc1ccc(S(=O)(=O)NC(=O)N2CCCN(c3ncnc4scc(-c5ccccc5)c34)CC2)cc1 [P10]	bind at sites other than the intended target; also recorded: non-specific binding	–	2.72 and ~2.72	–	inhibited RNase E	able to inhibit the activity of RNase G	2.62 and ~2.62	–	–	non-specific	–	44
